One block for each molecule: values may come before it.
Experiments:
ABCA1 phosphorylation = experiment: Phosphorylation of ABCA1 in cells; type: cell-based
ABCA1 protein [1] = experiment: ABCA1 protein level in mouse peritoneal macrophages (Western); type: cell-based; conditions: for ABCA1 protein level, effect in words: mouse peritoneal macrophages, 3 hours, apoA-I 10 μg/ml, HDL2 50 μg protein/ml, MβCD 1 mM 5 min, apigenin 40 μM
Method: Cellular lipid efflux assays, apoA-I cell association, and chemical cross-linking: The assays were carried out as in (14). Generally, 293 cells were labeled by culturing overnight in media containing either [^3H]cholesterol, for cholesterol efflux, or [^3H]choline, for phospholipid efflux. The next day, cells were washed with fresh media before or after treatment as indicated, and then apoA-I was added as acceptor and incubated for the indicated period before the media and cells were collected for analysis. Mouse peritoneal macrophage cells were isolated from male mice by peritoneal lavage with PBS 3 days after intraperitoneal injection with 1 ml of 3.85% thioglycollate. The cells were labeled with […] [^3H]cholesterol overnight in DMEM and 0.2% BSA supplemented with 50 μg/ml acetylated LDL plus LXR/RXR ligands 22(R)-hydroxycholesterol and 9-cis retinoic acid (both 10 μM). After labeling, cells were washed and efflux was carried out with 10 μg/ml apoA-I for 3 hours. Then, cells and medium were collected for analysis. Cholesterol efflux was expressed as the percentage of the radioactivity released from the cells into the medium, relative to the total radioactivity in cells plus medium. For apoA-I cell association, cells were incubated with 0.2 μg/ml [^125 I]apoA-I in 0.2% BSA and DMEM for 1 hour at 37° C. After being washed three times with fresh media, cells were lysed with 0.1% SDS and 0.1N NaOH lysis buffer, and radioactivity was determined by a gamma counter.
(§1) Immunoprecipitation and immunoblot analysis of ABCA1: For immunoblot analysis of ABCA1, ABCA1-FLAG, and ABCA1delPEST-FLAG, transfected HEK293 cells, peritoneal macrophages, or primary hepatocytes were washed and scraped in PBS and lysed in RIPA buffer (10 mM Tris-HCl [pH 7.3], 1 mM MgCl2, 1.0% Nonidet P-40, 0.5% sodium deoxycholate, and 5 mM EDTA in the presence of protease inhibitors as follows: 0.5 μg/ml leupeptin, 1 μg/ml aprotinin, and 1 μg/ml pepstatin A) (Roche Molecular Biochemicals, Indianapolis, Ind., USA). Postnuclear supernatants containing the indicated amounts of protein were subjected to Western analysis using an anti-ABCA1 antiserum or anti-FLAG M2 antibody and chemiluminescence detection. The relative intensities of the bands were determined by densitometry. For cell surface ABCA1 analysis, cells were first biotinylated with 0.5 mg/ml EZ-Link Sulfo-NHS-SS-Biotin (Pierce Chemical Co., Rockford, Ill., USA) at 4° C. for 30 minutes. Then cells were lysed with RIPA buffer at 4° C. After centrifugation, the supernatant of cell lysates was incubated with anti-FLAG agarose beads overnight at 4° C. Following centrifugation and washing, the collected agarose beads were subjected to SDS-PAGE sample buffer with 100 mM 2-mercaptoethanol. The total or […] ABCA1 was detected by Western blot using either anti-FLAG antibody or streptavidin-horseradish peroxidase.

ABCA1 protein [2] = experiment: as above; type: cell-based; conditions: cultured cells, short-term incubations, data not shown
ABCA1 protein [3] = experiment: ABCA1 protein level in primary mouse hepatocytes (Western); type: cell-based; conditions: apoA-I 10 μg/ml 3 hours
Method: as §1, with “peroxidase. […]” for “peroxidase.”

ABCA1 protein [4] = experiment: ABCA1 protein turnover and level in transiently transfected 293 cells (metabolic labeling, Western, cell surface biotinylation); type: cell-based, human
Text: Plasmid constructs and cell transfection: ABCA1-FLAG was constructed as described (18). ABCA1delPEST was based on ABCA1-FLAG. Using PCR, ABCA1delPEST was constructed by deleting a nucleotide sequence that encodes mouse ABCA1 amino acids 1283-1306 and was confirmed by sequencing. HEK293 cells, in 12- or 24-well collagen-coated plates, were transiently transfected with various plasmid constructs at indicated DNA concentrations with Lipofectamine 2000 (Invitrogen Corp., San Diego, Calif., USA) at 37° C. overnight (20 hours). A construct expressing green fluorescence protein (GFP) was routinely used to visually monitor transfection efficiency (i.e., the percentage of cells expressing GFP). The transfection efficiency of 293 cells was in the range of 50-80% of cells. […] In addition to performing multiple replicates within each experiment, all experiments were repeated on multiple separate occasions to confirm reproducibility of results.
as §1

ABCA1 [5] = conditions: macrophages loaded with acetyl-LDL and cholesterol ester; cited from earlier work
ABCA1 [6] = target: T1, ABCA1 (Mus musculus, UniProt P41233); experiment: Apolipoprotein A-I infusion in mice, ABCA1 in liver and peritoneal macrophages; type: in vivo; parameters: from tissue; host or cells: mouse liver and peritoneal macrophages
Method: […] Mice were anesthetized intraperitoneally with 0.1 ml/30 g body weight of a solution containing 100 mg/ml ketamine and 30 mg/ml xylazine. ApoA-I (20 mg/kg body weight) or BSA as control was administered via femoral vein as a bolus injection. Four hours after injection, animals were euthanized and the liver was dissected out for analysis.

ABCA1 [7] = target: T1, ABCA1; experiment: Calpain-catalyzed proteolysis of metabolically labeled ABCA1 in digitonin-permeabilized 293 cells; type: cell-based; parameters: expressed in transfected cells; host or cells: 293 cells, digitonin-permeabilized
Method: (§2) Calpain-catalyzed proteolysis of metabolically labeled ABCA1: Transiently transfected 293 cells were pulse-labeled by [^35S]methionine (0.5 mCi/ml) in 0.2% BSA and DMEM for 2 hours. Cells were washed three times with fresh media and placed on ice for 10 minutes. Then cells were permeabilized by addition of 80 μg/ml digitonin in DMEM and incubated on ice for 15 minutes. Next, the cells were washed twice with fresh DMEM, and then purified μ-calpain in DMEM plus 2 mM CaCl2 was added at the indicated concentration and incubated for 20 minutes at room temperature. Then cells were lysed by addition of 1 ml RIPA buffer with 40 μg/ml calpeptin. FLAG-tagged ABCA1 was immunoprecipitated by anti-FLAG agarose beads and subjected to quantitative analysis by PhosphorImager.

calpain protease = experiment: Degradation of a fluorescent calpain protease substrate in cells; type: cell-based; conditions: data not shown
ABCA1 [8] = target: T2, ABCA1 (Mus musculus, UniProt P41233, DEL1283-1306); experiment: Calpain-catalyzed proteolysis of metabolically labeled ABCA1 in digitonin-permeabilized 293 cells; type: cell-based; conditions: permeabilized 293 cells, purified μ-calpain
T2 construct: expressed in transfected cells; host or cells: 293 cells, digitonin-permeabilized
Method: as §2

[9] = 293 cells, lactacystin 20 μM for 3 h
[10] = time-course study of apoA-I infusion
[11] = 293 cells, apoA-I 10 μg/ml 3 hours

T1 sequence (P41233 whole entry, the tested form may be a part): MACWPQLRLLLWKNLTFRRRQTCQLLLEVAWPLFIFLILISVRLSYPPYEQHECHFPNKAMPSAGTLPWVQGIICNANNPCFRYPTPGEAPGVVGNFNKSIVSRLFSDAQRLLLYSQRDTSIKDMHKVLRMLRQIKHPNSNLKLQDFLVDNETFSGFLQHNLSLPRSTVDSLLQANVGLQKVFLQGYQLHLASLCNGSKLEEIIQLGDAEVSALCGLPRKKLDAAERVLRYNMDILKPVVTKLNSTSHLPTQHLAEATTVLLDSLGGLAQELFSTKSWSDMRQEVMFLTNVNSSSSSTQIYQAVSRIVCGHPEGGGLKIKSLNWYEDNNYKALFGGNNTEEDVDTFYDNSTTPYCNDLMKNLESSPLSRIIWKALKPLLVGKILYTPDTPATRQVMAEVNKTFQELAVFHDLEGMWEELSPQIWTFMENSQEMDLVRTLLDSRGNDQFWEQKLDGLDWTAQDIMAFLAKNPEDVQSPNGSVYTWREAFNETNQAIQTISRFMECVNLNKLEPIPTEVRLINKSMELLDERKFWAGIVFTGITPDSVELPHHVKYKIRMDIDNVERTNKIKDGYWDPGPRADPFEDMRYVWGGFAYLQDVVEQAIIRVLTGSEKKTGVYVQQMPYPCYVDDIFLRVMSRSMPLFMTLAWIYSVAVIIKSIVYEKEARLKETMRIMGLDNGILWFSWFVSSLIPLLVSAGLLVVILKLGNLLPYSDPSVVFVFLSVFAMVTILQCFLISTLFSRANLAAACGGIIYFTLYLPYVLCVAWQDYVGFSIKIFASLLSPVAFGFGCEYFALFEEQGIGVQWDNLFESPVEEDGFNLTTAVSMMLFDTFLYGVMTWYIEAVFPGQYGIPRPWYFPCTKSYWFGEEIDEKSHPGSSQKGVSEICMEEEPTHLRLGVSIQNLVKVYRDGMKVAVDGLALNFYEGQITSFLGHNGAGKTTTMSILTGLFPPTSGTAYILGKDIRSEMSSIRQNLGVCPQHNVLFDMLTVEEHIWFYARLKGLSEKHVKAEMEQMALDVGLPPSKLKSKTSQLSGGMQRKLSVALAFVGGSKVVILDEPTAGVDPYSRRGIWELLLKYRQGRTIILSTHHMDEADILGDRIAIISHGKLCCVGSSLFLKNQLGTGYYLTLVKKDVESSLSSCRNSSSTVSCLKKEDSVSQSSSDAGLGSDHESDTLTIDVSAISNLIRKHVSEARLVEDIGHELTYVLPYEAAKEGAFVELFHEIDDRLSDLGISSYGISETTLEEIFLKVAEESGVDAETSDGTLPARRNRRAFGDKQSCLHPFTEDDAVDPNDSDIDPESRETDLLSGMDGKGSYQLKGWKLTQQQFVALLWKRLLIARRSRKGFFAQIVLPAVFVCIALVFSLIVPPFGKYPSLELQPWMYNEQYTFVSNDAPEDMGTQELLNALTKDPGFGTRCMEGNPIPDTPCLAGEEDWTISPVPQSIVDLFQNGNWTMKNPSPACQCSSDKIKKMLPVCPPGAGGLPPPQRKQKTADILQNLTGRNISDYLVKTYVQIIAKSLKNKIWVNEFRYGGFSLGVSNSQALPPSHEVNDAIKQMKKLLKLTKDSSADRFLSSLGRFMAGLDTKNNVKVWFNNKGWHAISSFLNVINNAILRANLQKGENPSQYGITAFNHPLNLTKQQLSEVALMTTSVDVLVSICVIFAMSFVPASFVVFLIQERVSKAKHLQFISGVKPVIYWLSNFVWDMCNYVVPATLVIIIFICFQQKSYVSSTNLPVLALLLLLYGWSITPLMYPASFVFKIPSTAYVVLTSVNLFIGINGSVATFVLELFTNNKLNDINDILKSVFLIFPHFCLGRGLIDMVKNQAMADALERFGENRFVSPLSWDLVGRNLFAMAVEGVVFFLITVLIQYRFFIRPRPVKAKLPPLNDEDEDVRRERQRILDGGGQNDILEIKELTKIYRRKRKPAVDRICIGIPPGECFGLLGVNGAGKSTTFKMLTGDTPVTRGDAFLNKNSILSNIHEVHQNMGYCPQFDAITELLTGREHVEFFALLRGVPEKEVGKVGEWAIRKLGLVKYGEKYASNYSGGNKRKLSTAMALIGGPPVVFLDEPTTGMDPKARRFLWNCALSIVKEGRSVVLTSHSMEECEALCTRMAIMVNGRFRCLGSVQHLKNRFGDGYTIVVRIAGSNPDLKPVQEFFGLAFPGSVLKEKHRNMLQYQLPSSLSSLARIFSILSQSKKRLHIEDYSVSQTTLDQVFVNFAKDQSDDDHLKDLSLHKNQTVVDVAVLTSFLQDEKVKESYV
T2 sequence (P41233 with tags, fused parts or gaps DEL1283-1306): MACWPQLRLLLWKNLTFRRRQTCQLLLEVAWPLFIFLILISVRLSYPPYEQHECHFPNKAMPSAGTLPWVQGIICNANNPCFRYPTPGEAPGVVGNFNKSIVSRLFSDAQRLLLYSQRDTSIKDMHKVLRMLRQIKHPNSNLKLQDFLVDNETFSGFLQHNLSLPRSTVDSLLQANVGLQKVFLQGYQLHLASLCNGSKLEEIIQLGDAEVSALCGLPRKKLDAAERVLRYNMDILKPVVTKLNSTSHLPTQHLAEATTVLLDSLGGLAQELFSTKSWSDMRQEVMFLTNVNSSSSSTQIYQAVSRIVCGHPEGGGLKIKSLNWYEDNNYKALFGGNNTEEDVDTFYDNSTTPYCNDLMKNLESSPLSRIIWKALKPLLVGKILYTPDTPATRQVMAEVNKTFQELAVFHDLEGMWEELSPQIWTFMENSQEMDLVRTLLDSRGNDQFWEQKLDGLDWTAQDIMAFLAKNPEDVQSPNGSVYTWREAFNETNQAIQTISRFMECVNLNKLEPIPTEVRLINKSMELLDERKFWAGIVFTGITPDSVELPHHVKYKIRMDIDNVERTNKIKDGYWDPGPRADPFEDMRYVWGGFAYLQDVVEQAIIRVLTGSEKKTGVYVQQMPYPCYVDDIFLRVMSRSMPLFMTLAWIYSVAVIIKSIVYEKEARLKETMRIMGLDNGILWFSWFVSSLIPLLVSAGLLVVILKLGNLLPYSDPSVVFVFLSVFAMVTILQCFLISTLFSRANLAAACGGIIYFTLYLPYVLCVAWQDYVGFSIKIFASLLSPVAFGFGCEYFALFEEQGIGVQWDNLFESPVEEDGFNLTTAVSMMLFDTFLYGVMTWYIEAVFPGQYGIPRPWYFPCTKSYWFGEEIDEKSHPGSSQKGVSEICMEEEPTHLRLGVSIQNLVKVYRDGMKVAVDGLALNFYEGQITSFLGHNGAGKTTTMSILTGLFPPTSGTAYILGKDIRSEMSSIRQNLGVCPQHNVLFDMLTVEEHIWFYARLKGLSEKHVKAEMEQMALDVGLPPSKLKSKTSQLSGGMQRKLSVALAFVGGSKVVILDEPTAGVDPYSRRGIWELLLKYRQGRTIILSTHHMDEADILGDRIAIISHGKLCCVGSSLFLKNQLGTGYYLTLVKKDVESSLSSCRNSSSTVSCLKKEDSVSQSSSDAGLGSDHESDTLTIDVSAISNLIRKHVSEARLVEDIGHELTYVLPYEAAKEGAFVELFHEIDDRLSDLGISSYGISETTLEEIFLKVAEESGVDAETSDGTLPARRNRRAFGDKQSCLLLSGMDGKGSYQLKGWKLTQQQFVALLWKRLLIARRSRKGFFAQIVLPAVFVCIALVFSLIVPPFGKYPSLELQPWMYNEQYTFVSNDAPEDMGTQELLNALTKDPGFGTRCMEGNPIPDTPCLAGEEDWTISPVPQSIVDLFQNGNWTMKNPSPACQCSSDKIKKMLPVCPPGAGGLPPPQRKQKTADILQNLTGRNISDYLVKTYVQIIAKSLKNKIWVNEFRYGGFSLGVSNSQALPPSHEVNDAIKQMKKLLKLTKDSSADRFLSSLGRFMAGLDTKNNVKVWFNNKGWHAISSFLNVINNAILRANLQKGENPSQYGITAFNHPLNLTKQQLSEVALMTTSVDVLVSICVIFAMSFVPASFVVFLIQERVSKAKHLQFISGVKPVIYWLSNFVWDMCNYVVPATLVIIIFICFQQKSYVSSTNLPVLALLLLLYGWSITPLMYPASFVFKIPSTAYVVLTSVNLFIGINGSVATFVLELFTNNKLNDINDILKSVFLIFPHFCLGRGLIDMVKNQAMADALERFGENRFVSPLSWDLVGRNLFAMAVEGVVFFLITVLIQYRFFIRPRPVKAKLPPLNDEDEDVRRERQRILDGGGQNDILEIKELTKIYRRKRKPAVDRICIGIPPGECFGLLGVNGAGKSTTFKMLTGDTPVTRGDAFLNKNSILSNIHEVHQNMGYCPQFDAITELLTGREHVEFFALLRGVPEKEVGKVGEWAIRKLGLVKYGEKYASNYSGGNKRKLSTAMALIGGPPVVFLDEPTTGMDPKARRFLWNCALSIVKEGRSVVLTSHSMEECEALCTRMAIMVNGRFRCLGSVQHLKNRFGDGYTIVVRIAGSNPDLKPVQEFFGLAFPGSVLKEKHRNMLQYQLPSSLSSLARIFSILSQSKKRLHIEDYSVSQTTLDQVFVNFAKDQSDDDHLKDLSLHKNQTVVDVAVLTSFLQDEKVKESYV

Molecule: O=c1cc(-c2ccc(O)cc2)oc2cc(O)cc(O)c12 [apigenin, reference compound]
- phosphorylation of ABCA1 (ABCA1 phosphorylation): decrease
- ABCA1 protein level, effect in words (ABCA1 protein [1]): increase

Molecule: CCCC[C@@H](C=O)NC(=O)[C@H](CC(C)C)NC(=O)OCc1ccccc1 [calpeptin]
- ABCA1 mRNA (ABCA1 protein [2]): without any change
- ABCA1 protein level, effect in words (ABCA1 protein [3]): increased
- ABCA1 protein level, effect in words (ABCA1 protein [1]): increased
- effect of calpeptin on ABCA1delPEST (PEST sequence deleted) (ABCA1 protein [4]; 293 cells, calpeptin 30 μg/ml for 3 hours): abolished
- mean increase in ABCA1 protein levels (ABCA1 protein [4]; 293 cells, calpeptin 30 μg/ml for 3 hours, p<0.001): 3.84±0.32 fold
- cell surface ABCA1, effect in words (ABCA1 protein [4]; calpeptin): marked increase

Molecule: CC(=O)N[C@@H](CSC(=O)[C@]1([C@@H](O)C(C)C)NC(=O)[C@H](C)[C@@H]1O)C(=O)O [lactacystin]
- ABCA1 level (ABCA1 protein [1]; acetyl-LDL-loaded, LXR/RXR-activated macrophages, data not shown): increased
- ABCA1 level (ABCA1 [5]): increased
- accumulation of total and cell surface ubiquitinated ABCA1 (ABCA1 protein [4]; [9]): increase in the accumulation
- increase in total ABCA1 levels (ABCA1 protein [4]; [9]): 2.2 fold
- increase in cell surface ABCA1 levels (ABCA1 protein [4]; 293 cells, lactacystin, data not shown): 2.2 fold

Molecule: C=C1[C@@H](O)[C@@H]2O[C@]3(CC[C@H](/C=C/[C@@H](C)[C@@H]4CC(C)=C[C@@]5(O[C@H](C[C@@](C)(O)C(=O)O)CC[C@H]5O)O4)O3)CC[C@H]2O[C@@H]1[C@@H](O)C[C@H](C)[C@H]1O[C@@]2(CCCCO2)CC[C@H]1C [okadaic acid]
- ability of apoA-I to increase ABCA1 protein levels (ABCA1 protein [1]; macrophages): abolished

- ABCA1 protein in liver (ABCA1 [6]; mice, intravenous apoA-I 20 mg/kg, 4 hours, chow-fed): induction
- ABCA1 protein in peritoneal macrophages (ABCA1 [6]; mice, intravenous apoA-I, 4 hours, high-fat, high-cholesterol diet for 7 days): induction
- ABCA1 mRNA levels in liver (ABCA1 [6]; quantitative real-time PCR, data not shown): did not significantly alter
- ABCA1 protein levels after 24 hours (ABCA1 [6]; [10]): returned to base line
- time for which the increase in ABCA1 was sustained (ABCA1 [6]; [10]): 8 h
- ability of calpain to mediate proteolysis of ABCA1 after pre-treatment (ABCA1 [7]; apoA-I 10 μg/ml for 3 hours prior to permeabilization): abolished
Molecule: apoA-I: Human apoA-I (BIODESIGN International), dialyzed against PBS; apolipoprotein ligand of ABCA1
- ABCA1 mRNA (ABCA1 protein [2]): did not change
- phosphorylation of ABCA1 (ABCA1 phosphorylation): time- and dose-dependent reduction
- ABCA1 protein level, effect in words (ABCA1 protein [3]): rapid, marked increase
- cell surface expression of ABCA1 (ABCA1 protein [1]; macrophages, 3 hours apoA-I, biotinylation): increased
- ABCA1 protein level, effect in words (ABCA1 protein [1]): rapid, marked increase
- effect on ABCA1 in primary macrophage cultures (ABCA1 protein [1]): stabilization
- cellular expression levels of ABCA1delPEST (ABCA1 protein [4]; [11]): no effect
- protein levels of Walker motif mutant ABCA1 (ABCA1 protein [4]; [11]): no increase
- ABCA1 protein level, effect in words (ABCA1 protein [4]; 293 cells, wild type ABCA1, apoA-I 10 μg/ml 3 hours): rapid, marked increase
- level of ABCA1-W590S mutant (ABCA1 protein [4]; mutant binds apoA-I but does not mediate lipid efflux, data not shown): fails to increase
- ubiquitination levels of ABCA1 (ABCA1 protein [4]; with or without proteasome inhibitors, data not shown): did not decrease
- degradation of fluorescent calpain protease substrate (calpain protease): no change

Molecule: apoE: apoprotein ligand of ABCA1
- effect on ABCA1 in primary macrophage cultures (ABCA1 protein [1]): stabilization

Molecule: methy-β-cyclodextrin
- ABCA1 protein level, effect in words (ABCA1 protein [1]): no effect

- degradation of ABCA1delPEST (ABCA1 [8]): no appreciable degradation
- degradation of wild type ABCA1 (ABCA1 [7]; permeabilized 293 cells, purified μ-calpain): efficient degradation
B1: μ-calpain: Purified μ-calpain protease from Calbiochem-Novabiochem (protein, UniProt P07384 2-714; P04632 1-268, looked up)
Calpain-1 catalytic subunit: SEEIITPVYCTGVSAQVQKQRARELGLGRHENAIKYLGQDYEQLRVRCLQSGTLFRDEAFPPVPQSLGYKDLGPNSSKTYGIKWKRPTELLSNPQFIVDGATRTDICQGALGDCWLLAAIASLTLNDTLLHRVVPHGQSFQNGYAGIFHFQLWQFGEWVDVVVDDLLPIKDGKLVFVHSAEGNEFWSALLEKAYAKVNGSYEALSGGSTSEGFEDFTGGVTEWYELRKAPSDLYQIILKALERGSLLGCSIDISSVLDMEAITFKKLVKGHAYSVTGAKQVNYRGQVVSLIRMRNPWGEVEWTGAWSDSSSEWNNVDPYERDQLRVKMEDGEFWMSFRDFMREFTRLEICNLTPDALKSRTIRKWNTTLYEGTWRRGSTAGGCRNYPATFWVNPQFKIRLDETDDPDDYGDRESGCSFVLALMQKHRRRERRFGRDMETIGFAVYEVPPELVGQPAVHLKRDFFLANASRARSEQFINLREVSTRFRLPPGEYVVVPSTFEPNKEGDFVLRFFSEKSAGTVELDDQIQANLPDEQVLSEEEIDENFKALFRQLAGEDMEISVKELRTILNRIISKHKDLRTKGFSLESCRSMVNLMDRDGNGKLGLVEFNILWNRIRNYLSIFRKFDLDKSGSMSAYEMRMAIESAGFKLNKKLYELIITRYSEPDLAVDFDNFVCCLVRLETMFRFFKTLDTDLDGVVTFDLFKWLQLTMFA
Calpain small subunit 1: MFLVNSFLKGGGGGGGGGGGLGGGLGNVLGGLISGAGGGGGGGGGGGGGGGGGGGGTAMRILGGVISAISEAAAQYNPEPPPPRTHYSNIEANESEEVRQFRRLFAQLAGDDMEVSATELMNILNKVVTRHPDLKTDGFGIDTCRSMVAVMDSDTTGKLGFEEFKYLWNNIKRWQAIYKQFDTDRSGTICSSELPGAFEAAGFHLNEHLYNMIIRRYSDESGNMDFDNFISCLVRLDAMFRAFKSLDKDGTGQIQVNIQEWLQLTMYS

— US20040096851A1, “ABCA1 PEST domain-related compositions and methods” (priority 2002, published 2004)
